The values below come from ChEMBL document CHEMBL1152282, “SAR profiles of spirocyclic nicotinamide derived selective HDAC1/HDAC2 inhibitors (SHI-1:2)” (Bioorg Med Chem Lett, 2008).

The nature of data set [1]: Half life in rat at 2.0 mg/kg, iv. The format is ADME, organism-based. Set-up: dose 2 mg/kg, route intravenous. The note with it: in vivo.
The nature of data set [2]: Half life in dog at 0.90 mg/kg, iv. The format is ADME, organism-based, Canis lupus familiaris. Set-up: dose 0.9 mg/kg, route intravenous. The note with it: in vivo, 0.9 mg/kg.
The nature of data set [3]: Oral bioavailability in rat at 4.0 mg/kg. The note with it: in vivo. The format is ADME, organism-based.
The nature of data set [4]: Plasma clearance in dog at 0.90 mg/kg, iv. The format is ADME, organism-based, Canis lupus familiaris. Details: dose 0.9 mg/kg, route intravenous. The note with it: 0.9 mg/kg.
The test system of data set [5] is Canis familiaris. Description: Plasma concentration in CV dog at 10 mg/kg, iv. The format is ADME, organism-based, Canis lupus familiaris. Details: dose 10 mg/kg, route intravenous. The note with it: in vivo.
A short description of data set [6]: Plasma concentration in human HCT116 cells xenografted CD1 mouse at 15 mg/kg, ip after 72 hrs. The format is ADME, organism-based, HCT-116. Details: dose 15 mg/kg, route intraperitoneal.
Data set [7] is described as follows: Plasma concentration in human HCT116 cells xenografted CD1 mouse at 300 mg/kg, po after 6 hrs. Format: ADME, organism-based, HCT-116. Details: dose 300 mg/kg, route oral. Background: In xenograft studies the graft and the host belong to different species.
Data set [8] in a line: Plasma clearance in rat at 2.0 mg/kg, iv. Details: dose 2 mg/kg, route intravenous. Format: ADME, organism-based.
Data set [9] is described as follows: Plasma concentration in human HCT116 cells xenografted CD1 mouse at 15 mg/kg, ip after 24 hrs. The format is ADME, organism-based, HCT-116. Set-up: dose 15 mg/kg, route intraperitoneal.
Data set [10] is described as follows: Oral bioavailability in dog at 1.0 mg/kg. The format is ADME, organism-based, Canis lupus familiaris. The note with it: in vivo.
A short description of data set [11]: Plasma concentration in human HCT116 cells xenografted CD1 mouse at 15 mg/kg, ip after 6 hrs. Format: ADME, organism-based, HCT-116. Set-up: dose 15 mg/kg, route intraperitoneal.
Data set [12] in a line: Solubility of the compound. The format is physicochemical.
Data set [13] in a line: Plasma concentration in human HCT116 cells xenografted CD1 mouse at 150 mg/kg, po after 6 hrs. The format is ADME, organism-based, HCT-116. Details: dose 150 mg/kg, route oral.
Data set [14] in a line: Plasma concentration in human HCT116 cells xenografted CD1 mouse at 15 mg/kg, ip after 48 hrs. The format is ADME, organism-based, HCT-116. Details: dose 15 mg/kg, route intraperitoneal.
Data set [15] is described as follows: Plasma clearance in dog at 0.50 mg/kg, iv. Format: ADME, organism-based, Canis lupus familiaris. Details: dose 0.5 mg/kg, route intravenous. The note with it: 0.5 mg/kg.
Data set [16] is described as follows: Half life in dog at 0.50 mg/kg, iv. The note with it: in vivo, 0.5 mg/kg. Details: dose 0.5 mg/kg, route intravenous. Format: ADME, organism-based, Canis lupus familiaris.
Data set [17] in a line: Volume of distribution at steady state in rat at 2.0 mg/kg, iv. The note with it: in vivo, read-out: Vdss. Format: ADME, organism-based. Details: dose 2 mg/kg, route intravenous.
Data set [18] concerns Canis familiaris. Description: Plasma concentration in CV dog at 3 mg/kg, iv. The format is ADME, organism-based, Canis lupus familiaris. Details: dose 3 mg/kg, route intravenous. The note with it: in vivo.
The nature of data set [19]: Plasma concentration in human HCT116 cells xenografted CD1 mouse at 300 mg/kg, po after 24 hrs. The format is ADME, organism-based, HCT-116. Set-up: dose 300 mg/kg, route oral.
Data set [20] in a line: Distribution coefficient, log D of the compound. The format is physicochemical. The note with it: octanol/water.
Data set [21] can be described thus: Volume of distribution at steady state in dog at 0.50 mg/kg, iv. The format is ADME, organism-based, Canis lupus familiaris. Set-up: dose 0.5 mg/kg, route intravenous. The note with it: in vivo, 0.5 mg/kg, read-out: Vdss.
Data set [22] is described as follows: Plasma concentration in human HCT116 cells xenografted CD1 mouse at 150 mg/kg, po after 24 hrs. Format: ADME, organism-based, HCT-116. Details: dose 150 mg/kg, route oral.
Data set [23] is described as follows: Cmax in mouse at 150 mg/kg, po. The format is ADME, organism-based. Details: dose 150 mg/kg, route oral. The note with it: in vivo.
Data set [24] can be described thus: AUC in mouse at 150 mg/kg, po. Format: ADME, organism-based. Set-up: dose 150 mg/kg, route oral. The note with it: plasma.

The term half-life denotes the time needed for the level to fall by half in the phase considered. In general, bioavailability refers to the share of a dose that reaches the circulation, judged against a reference dose that is usually intravenous. Low values mean poor availability, high ones good availability. Usually clearance stands for a measure of how efficiently the substance is removed, as volume per time. Usually solubility stands for the dissolved amount per volume that the medium holds. A lower solubility goes with little dissolved substance. Usually logD stands for lipophilicity at a set pH, counting ionised and neutral species. Broadly, the Cmax is the highest concentration seen after dosing. For orientation: AUC means concentration integrated over time. High values mean more exposure, low ones less exposure.

Values after ≈ are worked out from the molar mass of the structure shown.

Take `C[C@H]1CN(c2ccc(C(=O)Nc3ccccc3N)cn2)CCN1C(=O)OCc1ccccc1`: the half-life in data set [1] is 55.8 min; in data set [2], 336 min. The compound further returned a bioavailability in [3] of 37%. The compound further returned a clearance in [4] of 7.4 mL/min/kg.

In the case of `Nc1ccc(-c2cccs2)cc1NC(=O)c1ccc(N2CCC3(CCNC3)CC2)nc1`, the concentration was 30 µM in the data set on Canis familiaris [5] and 6 µM with Canis familiaris [18]. In addition, in [6], the concentration at 72 h turned out to be 30 nM. The results for the half-life in data set [1] and in data set [16] were 372 min and 402 min, respectively. For the same compound, the concentration at 6 h in data set [7] was 21 µM; in [11] it was 3.4 µM; in data set [13], 11 µM. The results for the clearance in [8] and in data set [15] were 31 mL/min/kg and 5.9 mL/min/kg, respectively. Also, the concentration at 24 h was 320 nM in data set [9], 780 nM in data set [19] and 220 nM in data set [22]. Besides, the bioavailability in [3] was found to be 23%; in data set [10], 100%. The compound further came in with a solubility in data set [12] of 186 µM (≈ 80.6 µg/mL). In [14], this compound gave a concentration at 48 h of 50 nM. For the same compound, the Vd in data set [17] was 8.6 L/kg; in data set [21], 3.3 L/kg. Further, the logD in data set [20] worked out at 1.45.

Compound `Nc1ccc(-c2cccs2)cc1NC(=O)c1ccc(N2CCC3(CCNC3=O)CC2)nc1` yielded a Cmax in data set [23] of 34 µM. Also, the AUC in [24] was found to be 88 µM·h.

For the compound `Nc1ccc(-c2cccs2)cc1NC(=O)c1ccc(N2CCC3(CC2)CNC(=O)N3)nc1`, in data set [23], the highest level (Cmax) was 2 µM. In data set [24], this compound had an AUC of 10 µM·h.

For the compound `Nc1ccc(-c2cccs2)cc1NC(=O)c1ccc(N2CCC3(CC2)COC(=O)N3)nc1`, the half-life was 156 min in [1] and 408 min in data set [16]. Further, the values for the clearance in data set [8] and in data set [15] were 7.4 mL/min/kg and 9.8 mL/min/kg, respectively. For the same compound, the figures for the bioavailability in data set [3] and in [10] were 13% and 18%, respectively. This compound yielded a Cmax in data set [23] of 6 µM. The same compound registered an AUC in data set [24] of 14 µM·h. The Vd in data set [17] was determined as 0.47 L/kg; in data set [21] it was 2.3 L/kg.
